Numbering of substitutions follows the chain as printed. Where a SMILES comes first, the peptide text is derived from it.

The source of these data is paper PMC2099433, “The binding site for neohesperidin dihydrochalcone at the human sweet taste receptor” (BMC Structural Biology, 2007).

Test [1] deals with T1, hTAS1R2 + hTAS1R3 H641A^3.33 (Homo sapiens, UniProt Q7RTX0+Q8TE23, H641A).
T1 construct: expressed in transfected cells; host or cells: HEK293T cells stably expressing G16Gust44
T1 sequence (Q8TE23 20-839): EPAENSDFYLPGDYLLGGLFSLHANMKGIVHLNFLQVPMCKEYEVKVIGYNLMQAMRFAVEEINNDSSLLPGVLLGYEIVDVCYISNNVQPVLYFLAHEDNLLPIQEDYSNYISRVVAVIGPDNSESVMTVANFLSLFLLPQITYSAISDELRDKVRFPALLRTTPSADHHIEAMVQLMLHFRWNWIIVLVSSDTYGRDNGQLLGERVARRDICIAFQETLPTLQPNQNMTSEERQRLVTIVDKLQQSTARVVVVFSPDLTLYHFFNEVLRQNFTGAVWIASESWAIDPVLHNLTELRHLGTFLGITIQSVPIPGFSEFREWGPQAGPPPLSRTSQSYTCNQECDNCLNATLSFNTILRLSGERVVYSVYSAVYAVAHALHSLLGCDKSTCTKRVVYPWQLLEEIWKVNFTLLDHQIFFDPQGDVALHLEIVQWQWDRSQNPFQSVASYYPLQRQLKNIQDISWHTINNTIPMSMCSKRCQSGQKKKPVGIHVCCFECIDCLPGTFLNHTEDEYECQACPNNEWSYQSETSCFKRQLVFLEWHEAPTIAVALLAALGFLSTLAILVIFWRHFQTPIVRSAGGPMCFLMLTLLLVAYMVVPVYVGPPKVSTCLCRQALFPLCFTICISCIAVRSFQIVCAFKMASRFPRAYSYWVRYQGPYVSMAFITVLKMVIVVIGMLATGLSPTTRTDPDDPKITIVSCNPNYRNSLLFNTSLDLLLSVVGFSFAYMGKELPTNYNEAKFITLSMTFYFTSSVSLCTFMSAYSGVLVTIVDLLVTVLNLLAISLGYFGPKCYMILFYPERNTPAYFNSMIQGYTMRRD
T1 sequence (Q7RTX0 21-852 H641A): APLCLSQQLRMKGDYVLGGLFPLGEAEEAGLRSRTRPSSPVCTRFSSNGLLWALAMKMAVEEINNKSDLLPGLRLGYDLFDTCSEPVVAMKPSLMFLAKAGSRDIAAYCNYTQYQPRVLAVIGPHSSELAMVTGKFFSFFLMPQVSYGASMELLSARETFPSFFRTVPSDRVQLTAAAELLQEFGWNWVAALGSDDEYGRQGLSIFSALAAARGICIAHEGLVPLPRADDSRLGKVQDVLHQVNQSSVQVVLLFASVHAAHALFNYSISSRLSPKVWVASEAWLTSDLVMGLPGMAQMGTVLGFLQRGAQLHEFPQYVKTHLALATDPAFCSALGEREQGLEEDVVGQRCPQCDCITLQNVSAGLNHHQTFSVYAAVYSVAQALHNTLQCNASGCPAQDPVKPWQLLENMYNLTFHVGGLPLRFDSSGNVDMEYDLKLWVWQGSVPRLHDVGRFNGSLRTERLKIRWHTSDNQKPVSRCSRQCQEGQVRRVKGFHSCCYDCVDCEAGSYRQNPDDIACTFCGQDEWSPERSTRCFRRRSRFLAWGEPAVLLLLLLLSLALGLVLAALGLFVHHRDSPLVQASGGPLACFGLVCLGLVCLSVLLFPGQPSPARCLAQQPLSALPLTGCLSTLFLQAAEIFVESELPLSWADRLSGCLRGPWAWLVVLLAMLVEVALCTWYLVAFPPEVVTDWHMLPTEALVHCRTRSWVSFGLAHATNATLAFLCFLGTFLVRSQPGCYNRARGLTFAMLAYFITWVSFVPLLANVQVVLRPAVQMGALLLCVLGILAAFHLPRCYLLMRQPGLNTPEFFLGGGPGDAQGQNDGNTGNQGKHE
Briefly: Calcium response (FLIPR), hTAS1R3 mutant coexpressed with hTAS1R2. The format is cell-based. The settings on record: variant H641A^3.33; for Emax: read-out: maximal signal (% of wt). In a few lines: (§1)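 HEK293T/G16Gust44, transient transfection of HSV-tagged TAS1R2 + TAS1R3 mutants; Fluo4-AM loading 1 h at 24 h; sweet tastants in C1 solution; FLIPR Ca2+ read; ΔF/F, mock-subtracted; ≥3 independent expts in duplicate.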

Test [2] concerns the target T2, hTAS1R2 + hTAS1R3 R723A^5.36 (Homo sapiens, UniProt Q7RTX0+Q8TE23, R723A).
T2 construct: expressed in transfected cells; host or cells: HEK293T cells stably expressing G16Gust44
T2 sequence (Q8TE23 20-839): T1 sequence (Q8TE23 20-839)
T2 sequence (Q7RTX0 21-852 R723A): T1 sequence (Q7RTX0 21-852 H641A) with A621H, R703A
Described as above. The format is cell-based. As to conditions: variant R723A^5.36; for Emax: read-out: maximal signal (% of wt). In a few lines:
as §1

`COc1ccc(CCC(=O)c2c(O)cc(O[C@@H]3O[C@H](CO)[C@@H](O)[C@H](O)[C@H]3O[C@@H]3O[C@@H](C)[C@H](O)[C@@H](O)[C@H]3O)cc2O)cc1O` [NHDC, neohesperidin dihydrochalcone]: in test [1], the EC50 was 1.2 ± 0.4 mM and the Emax is 57 ± 22%. In test [2], the EC50 stood at 200 ± 100 µM and the Emax was determined as 69 ± 71%.

With `COC(=O)[C@H](Cc1ccccc1)NC(=O)[C@@H](N)CC(=O)O` [aspartame] (HELM PEPTIDE1{D.F.[CO[*:1]]}$$$$V2.0), in test [1], the concentration giving a half-maximal response (EC50) was 1.8 ± 0.4 mM and the Emax worked out at 79 ± 70%. Further, in test [2], the half-maximal effective concentration (EC50) came out at 1500 ± 500 µM and the Emax stood at 68 ± 50%.
